According to patent publication US20240116985A1, “STAPLED PEPTIDES AND METHODS THEREOF” (priority 2020, published 2024):
Like-named read-outs stand apart in the source and are kept apart here.

Experiments:
[1] = molecular target: T1, full-length beta-Catenin (Uniprot ID P35222) (Homo sapiens, UniProt P35222); assay: Fluorescence polarization IC50 (beta-catenin / 5FAM-TCF4 10-53 competition); type: binding
T1 construct: 10 nM full-length beta-Catenin (Uniprot ID P35222)
T1 sequence (P35222 1-781): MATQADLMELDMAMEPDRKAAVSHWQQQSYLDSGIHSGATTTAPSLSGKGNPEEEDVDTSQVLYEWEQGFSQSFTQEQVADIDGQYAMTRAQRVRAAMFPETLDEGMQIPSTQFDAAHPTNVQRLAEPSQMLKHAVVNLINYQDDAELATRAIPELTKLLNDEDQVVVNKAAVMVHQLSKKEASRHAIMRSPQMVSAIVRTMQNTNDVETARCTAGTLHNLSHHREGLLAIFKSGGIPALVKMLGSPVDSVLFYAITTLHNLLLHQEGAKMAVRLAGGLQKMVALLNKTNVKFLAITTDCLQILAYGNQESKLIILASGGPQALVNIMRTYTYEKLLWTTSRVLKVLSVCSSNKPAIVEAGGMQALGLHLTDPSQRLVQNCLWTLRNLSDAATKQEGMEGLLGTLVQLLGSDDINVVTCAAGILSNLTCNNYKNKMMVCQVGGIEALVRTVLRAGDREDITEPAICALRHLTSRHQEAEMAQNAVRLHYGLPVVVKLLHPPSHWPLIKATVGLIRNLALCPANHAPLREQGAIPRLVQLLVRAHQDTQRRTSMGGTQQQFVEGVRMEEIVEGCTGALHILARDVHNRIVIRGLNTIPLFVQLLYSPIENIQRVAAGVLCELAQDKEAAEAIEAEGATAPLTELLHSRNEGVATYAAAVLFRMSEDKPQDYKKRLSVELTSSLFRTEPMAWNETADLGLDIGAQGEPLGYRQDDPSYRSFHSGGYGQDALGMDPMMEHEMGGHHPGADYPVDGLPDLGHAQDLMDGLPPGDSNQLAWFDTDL

[2] = molecular target: T2, full-length B-Catenin (Uniprot ID P35222) (Homo sapiens, UniProt P35222); assay: Alphascreen binding assay (beta-catenin / biotin-TCF4 10-53)
T2 construct: 65 nM full-length B-Catenin (Uniprot ID P35222)
T2 sequence (P35222 1-781): T1 sequence (P35222 1-781)
In short: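 AlphaScreen (Ni-chelate beads) competition in 50 mM Tris pH 8.0, 250 mM NaCl with detergents and 0.1% BSA. Peptide titrated 10 uM–5 nM against 65 nM human β-catenin bound to 10 nM biotinylated TCF4 10-53, 15 min then 60 min with beads, both at 20 °C; 1:1 Hill-slope fit.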

[3] = CHI Log D procedure; type: physicochemical; settings: for CHI Log D: pH 7.4
[4] = Table E2-1, read-out: beta-Catenin FP IC50
[5] = fluorescence polarization, beta-catenin, read-out: FP EC50

Structure (SMILES)	IC50 [1, 4] [nM]	EC50 [2] [nM]	CHI Log D [3]	IC50 [1, 5] [nM]	chromatographic logD ([3]; pH 7.4, CHI Log D)
CC[C@H](C)[C@@H]1NC(=O)[C@H](CC(=O)O)NC(=O)[C@]2(CC=CCCCC3(CCCC=CCCCCCC[C@@](C)(C(=O)N[C@@H](Cc4ccccc4)C(=O)N[C@@H](Cc4c[nH]c5ccccc45)C(=O)N[C@@H](CCC(N)=O)C(N)=O)NC(=O)[C@H](CCC(N)=O)NC(=O)[C@H](Cc4ccccc4)NC(=O)[C@H](C)NC(=O)[C@H](C)NC(=O)[C@H](CCC(=O)O)NC(=O)[C@H](CC(=O)O)NC3=O)NC1=O)CCCN2C(C)=O (stereo partly drawn) [I-180, Ac-PL3-Asp-Ile-B5-Asp-Glu-Ala-Ala-Phe-Gln-S8-Phe-Trp-Gln-NH2]	56	88	2.193	–	–
CC[C@H](C)[C@@H]1NC(=O)[C@H](CC(=O)O)NC(=O)[C@]2(CC=CCCCC3(CCCC=CCCCCCC[C@@](C)(C(=O)N[C@@H](Cc4ccccc4)C(=O)N[C@@H](Cc4c[nH]c5ccccc45)C(=O)N[C@@H](CCC(N)=O)C(N)=O)NC(=O)[C@H](CCC(N)=O)NC(=O)[C@H](Cc4ccccc4)NC(=O)[C@H](C)NC(=O)[C@H](C)NC(=O)[C@H](CCC(=O)O)NC(=O)[C@H](CC(=O)O)NC3=O)NC1=O)CCCN2C(C)=O (stereo partly drawn) [I-181, Ac-PL3-Asp-Ile-B5-Asp-Glu-Ala-Ala-Phe-Gln-S8-Phe-Trp-Gln-NH2]	310	51	2.213	310	–
CC[C@H](C)[C@@H]1NC(=O)[C@H](CC(=O)O)NC(=O)[C@]2(CC=CCCCC3(CCCC=CCOC(=O)N(C)CCC[C@@](C)(C(=O)N[C@@H](Cc4ccccc4)C(=O)N[C@@H](Cc4c[nH]c5ccccc45)C(=O)N[C@@H](Cc4c[nH]cn4)C(N)=O)NC(=O)[C@H](CCC(N)=O)NC(=O)[C@H](Cc4ccccc4)NC(=O)[C@H](C)NC(=O)[C@H](C)NC(=O)[C@H](CC(=O)O)NC(=O)[C@H](CC(=O)O)NC3=O)NC1=O)CCCN2C(C)=O (stereo partly drawn) [I-188, Ac-PL3-Asp-Ile-B5-Asp-Asp-Ala-Ala-Phe-Gln-SeN-Phe-Trp-His-NH2]	1600	156	1.611	1600	–
CC[C@H](C)[C@@H]1NC(=O)[C@H](CC(=O)O)NC(=O)[C@]2(CC=CCCCC3(CCCC=CCOC(=O)N(C)CCC[C@@](C)(C(=O)N[C@@H](Cc4ccccc4)C(=O)N[C@@H](Cc4c[nH]c5ccccc45)C(=O)N[C@@H](Cc4c[nH]cn4)C(N)=O)NC(=O)[C@H](CCC(N)=O)NC(=O)[C@H](Cc4ccccc4)NC(=O)[C@H](C)NC(=O)[C@H](C)NC(=O)[C@H](CC(=O)O)NC(=O)[C@H](CC(=O)O)NC3=O)NC1=O)CCCN2C(C)=O (stereo partly drawn) [I-189, Ac-PL3-Asp-Ile-B5-Asp-Asp-Ala-Ala-Phe-Gln-SeN-Phe-Trp-His-NH2]	–	156	1.611	1600	–
CC[C@H](C)[C@@H]1NC(=O)[C@H](CC(=O)O)NC(=O)[C@]2(CC=CCCCC3(CCCC=CCOC(=O)N(C)CCC[C@@](C)(C(=O)N[C@@H](Cc4ccccc4)C(=O)N[C@@H](Cc4c[nH]c5ccccc45)C(=O)N[C@@H](Cc4c[nH]cn4)C(N)=O)NC(=O)[C@H](CCC(N)=O)NC(=O)[C@H](Cc4ccccc4)NC(=O)[C@H](C)NC(=O)[C@H](C)NC(=O)[C@H](CC(=O)O)NC(=O)[C@H](CC(=O)O)NC3=O)NC1=O)CCCN2C(C)=O (stereo partly drawn) [I-190, Ac-PL3-Asp-Ile-B5-Asp-Asp-Ala-Ala-Phe-Gln-SeN-Phe-Trp-His-NH2]	696	94	1.736	696	–
CC[C@H](C)[C@@H]1NC(=O)[C@H](CC(=O)O)NC(=O)[C@]2(CC=CCCCC3(CCCC=CCCCCCC[C@@](C)(C(=O)N[C@@H](Cc4ccccc4)C(=O)N[C@@H](Cc4c[nH]c5ccccc45)C(N)=O)NC(=O)[C@H](CCC(N)=O)NC(=O)[C@H](Cc4ccccc4)NC(=O)[C@H](C)NC(=O)[C@H](C)NC(=O)[C@H](CCC(=O)O)NC(=O)[C@H](CC(=O)O)NC3=O)NC1=O)CCCN2C(C)=O (stereo partly drawn) [I-191, Ac-PL3-Asp-Ile-B5-Asp-Glu-Ala-Ala-Phe-Gln-S8-Phe-Trp-NH2]	1660	240	2.412	1660	–
CC[C@H](C)[C@@H]1NC(=O)[C@H](CC(=O)O)NC(=O)[C@]2(CC=CCCCC3(CCCC=CCCCCCC[C@@](C)(C(=O)N[C@@H](Cc4ccccc4)C(=O)N[C@@H](Cc4c[nH]c5ccccc45)C(N)=O)NC(=O)[C@H](CCC(N)=O)NC(=O)[C@H](Cc4ccccc4)NC(=O)[C@H](C)NC(=O)[C@H](C)NC(=O)[C@H](CCC(=O)O)NC(=O)[C@H](CC(=O)O)NC3=O)NC1=O)CCCN2C(C)=O (stereo partly drawn) [I-192, Ac-PL3-Asp-Ile-B5-Asp-Glu-Ala-Ala-Phe-Gln-S8-Phe-Trp-NH2]	–	240	2.412	1660	–
CC[C@H](C)[C@@H]1NC(=O)[C@H](CC(=O)O)NC(=O)[C@]2(CC=CCCCC3(CCCC=CCCCCCC[C@@](C)(C(=O)N[C@@H](Cc4ccccc4)C(=O)N[C@@H](Cc4c[nH]c5ccccc45)C(N)=O)NC(=O)[C@H](CCC(N)=O)NC(=O)[C@H](Cc4ccccc4)NC(=O)[C@H](C)NC(=O)[C@H](C)NC(=O)[C@H](CCC(=O)O)NC(=O)[C@H](CC(=O)O)NC3=O)NC1=O)CCCN2C(C)=O (stereo partly drawn) [I-193, Ac-PL3-Asp-Ile-B5-Asp-Glu-Ala-Ala-Phe-Gln-S8-Phe-Trp-NH2]	533	76	2.462	533	–
CC[C@H](C)[C@@H]1NC(=O)[C@H](CC(=O)O)NC(=O)[C@]2(CC=CCCCC3(CCCC=CCCCCCC[C@@](C)(C(=O)N[C@@H](Cc4ccccc4)C(=O)N[C@@H](Cc4c[nH]c5ccccc45)C(=O)N[C@@H](C)C(N)=O)NC(=O)[C@H](CCC(N)=O)NC(=O)[C@H](Cc4ccccc4)NC(=O)[C@H](C)NC(=O)[C@H](C)NC(=O)[C@H](CCC(=O)O)NC(=O)[C@H](CC(=O)O)NC3=O)NC1=O)CCCN2C(C)=O (stereo partly drawn) [I-194, Ac-PL3-Asp-Ile-B5-Asp-Glu-Ala-Ala-Phe-Gln-S8-Phe-Trp-Ala-NH2]	1010	105	–	–	2.33
CC(=O)N1CCC[C@]12CC=CCCCC1(CCCC=CCCCCCC[C@@](C)(C(=O)N[C@@H](Cc3ccccc3)C(=O)N[C@@H](Cc3c[nH]c4ccccc34)C(=O)N[C@@H](CCC(N)=O)C(N)=O)NC(=O)[C@H](C(C)C)NC(=O)[C@H](Cc3cccc(C)c3)NC(=O)[C@H](C)NC(=O)[C@H](C)NC(=O)[C@H](CCC(=O)O)NC(=O)[C@H](CC(=O)O)NC1=O)NC(=O)[C@H](C)NC(=O)[C@H](CC(=O)O)NC2=O (stereo partly drawn) [I-207, Ac-PL3-Asp-Ala-B5-Asp-Glu-Ala-Ala-3MeF-Val-S8-Phe-Trp-Gln-NH2]	1750	143	2.054	1750	–
COc1ccc(C[C@@H]2NC(=O)[C@H](C)NC(=O)[C@H](C)NC(=O)[C@H](CCC(=O)O)NC(=O)[C@H](CC(=O)O)NC(=O)C3(CCCC=CCCCCCC[C@@](C)(C(=O)N[C@@H](Cc4ccccc4)C(=O)N[C@@H](Cc4c[nH]c5ccccc45)C(=O)N[C@@H](CCC(N)=O)C(N)=O)NC(=O)[C@H](C(C)C)NC2=O)CCCC=CC[C@]2(CCCN2C(C)=O)C(=O)N[C@@H](CC(=O)O)C(=O)N[C@@H](C)C(=O)N3)cc1 (stereo partly drawn) [I-217, Ac-PL3-Asp-Ala-B5-Asp-Glu-Ala-Ala-MeTyr-Val-S8-Phe-Trp-Gln-NH2]	1960	90	2.012	1960	–
CC(=O)N1CCC[C@]12CC=CCCCC1(CCCC=CCCCCCC[C@@](C)(C(=O)N[C@@H](Cc3ccccc3)C(=O)N[C@@H](Cc3c[nH]c4ccccc34)C(=O)N[C@@H](CCC(N)=O)C(N)=O)NC(=O)[C@H](C(C)C)NC(=O)[C@H](Cc3cc(F)cc(F)c3)NC(=O)[C@H](C)NC(=O)[C@H](C)NC(=O)[C@H](CCC(=O)O)NC(=O)[C@H](CC(=O)O)NC1=O)NC(=O)[C@H](C)NC(=O)[C@H](CC(=O)O)NC2=O (stereo partly drawn) [I-219, Ac-PL3-Asp-Ala-B5-Asp-Glu-Ala-Ala-35FF-Val-S8-Phe-Trp-Gln-NH2]	2860	131	2.074	2860	–
CC(=O)N1CCC[C@]12CC=CCCCC1(CCCC=CCCCCCC[C@@](C)(C(=O)N[C@@H](Cc3ccccc3)C(=O)N[C@@H](Cc3c[nH]c4ccccc34)C(=O)N[C@@H](CCC(N)=O)C(N)=O)NC(=O)[C@H](C(C)C)NC(=O)[C@H](Cc3cccc(C(F)(F)F)c3)NC(=O)[C@H](C)NC(=O)[C@H](C)NC(=O)[C@H](CC(=O)O)NC(=O)[C@H](CC(=O)O)NC1=O)NC(=O)[C@H](C)NC(=O)[C@H](CC(=O)O)NC2=O (stereo partly drawn) [I-238, Ac-PL3-Asp-Ala-B5-Asp-Asp-Ala-Ala-3F3MeF-Val-S8-Phe-Trp-Gln-NH2]	1590	267	2.074	1590	–
